From PubChem BioAssay (NCI)
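Following 48 hours of exposure in 96-well plates, responses at five concentrations were used to interpolate endpoints linearly. Abbreviation: GI50, concentration required for 50% inhibition of growth. At the TGI there is no net growth.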

Columns and labels:
Assay in all cases: NCI-60 cell line screen, 48 h
786-0 renal = tested on: 786-0 renal
A549 NSCLC = tested on: A549 NSCLC
ACHN renal = tested on: ACHN renal
BT-549 breast = tested on: BT-549 breast
CAKI-1 renal = tested on: CAKI-1 renal
CCRF-CEM leukemia = tested on: CCRF-CEM leukemia
COLO 205 colon = tested on: COLO 205 colon
DU-145 prostate = tested on: DU-145 prostate
EKVX NSCLC = tested on: EKVX NSCLC
HCC-2998 colon = tested on: HCC-2998 colon
HCT-116 colon = tested on: HCT-116 colon
HCT-15 colon = tested on: HCT-15 colon
HL-60(TB) leukemia = tested on: HL-60(TB) leukemia
HOP-62 NSCLC = tested on: HOP-62 NSCLC
HOP-92 NSCLC = tested on: HOP-92 NSCLC
HS 578T breast = tested on: HS 578T breast
HT29 colon = tested on: HT29 colon
IGROV1 ovarian = tested on: IGROV1 ovarian
K-562 leukemia = tested on: K-562 leukemia
KM12 colon = tested on: KM12 colon
LOX IMVI melanoma = tested on: LOX IMVI melanoma
M14 melanoma = tested on: M14 melanoma
MALME-3M melanoma = tested on: MALME-3M melanoma
MCF7 breast = tested on: MCF7 breast
MDA-MB-231 breast = tested on: MDA-MB-231 breast
MDA-MB-435 = tested on: MDA-MB-435
MOLT-4 leukemia = tested on: MOLT-4 leukemia
NCI-H226 lung = tested on: NCI-H226 lung
NCI-H23 lung = tested on: NCI-H23 lung
NCI-H460 lung = tested on: NCI-H460 lung
NCI-H522 lung = tested on: NCI-H522 lung
NCI/ADR-RES ovarian = tested on: NCI/ADR-RES ovarian
OVCAR-3 ovarian = tested on: OVCAR-3 ovarian
OVCAR-4 ovarian = tested on: OVCAR-4 ovarian
OVCAR-5 ovarian = tested on: OVCAR-5 ovarian
OVCAR-8 ovarian = tested on: OVCAR-8 ovarian
PC-3 prostate = tested on: PC-3 prostate
RPMI-8226 leukemia = tested on: RPMI-8226 leukemia
RXF 393 renal = tested on: RXF 393 renal
SF-268 CNS = tested on: SF-268 CNS
SF-295 CNS = tested on: SF-295 CNS
SF-539 CNS = tested on: SF-539 CNS
SK-MEL-2 melanoma = tested on: SK-MEL-2 melanoma
SK-MEL-28 melanoma = tested on: SK-MEL-28 melanoma
SK-MEL-5 melanoma = tested on: SK-MEL-5 melanoma
SK-OV-3 ovarian = tested on: SK-OV-3 ovarian
SN12C renal = tested on: SN12C renal
SNB-19 CNS = tested on: SNB-19 CNS
SNB-75 CNS = tested on: SNB-75 CNS
SR leukemia = tested on: SR leukemia
SW-620 colon = tested on: SW-620 colon
T-47D breast = tested on: T-47D breast
TK-10 renal = tested on: TK-10 renal
U251 CNS = tested on: U251 CNS
UACC-257 melanoma = tested on: UACC-257 melanoma
UACC-62 melanoma = tested on: UACC-62 melanoma
UO-31 renal = tested on: UO-31 renal
A498 renal = tested on: A498 renal

For `O=C(OCC1OC(n2cc(C(F)(F)F)c(=O)[nH]c2=O)CC1OC(=O)c1ccc([N+](=O)[O-])cc1)c1ccc([N+](=O)[O-])cc1` (stereo unspecified), the GI50 (786-0 renal) was 3.11 µM, the TGI (786-0 renal) was 18.6 µM and the GI50 (A549 NSCLC) was 4.95 µM. For the same compound, the TGI (A549 NSCLC) was > 100 µM, the GI50 (ACHN renal) was 1.17 µM and the TGI (ACHN renal) was > 100 µM. For the same compound, the GI50 (BT-549 breast) was 7.42 µM, the TGI (BT-549 breast) was > 100 µM and the GI50 (CAKI-1 renal) was 3.29 µM. The TGI (CAKI-1 renal) was > 100 µM, the GI50 (CCRF-CEM leukemia) was 3.86 µM and the TGI (CCRF-CEM leukemia) was > 100 µM. For the same compound, the GI50 (COLO 205 colon) was > 100 µM, the TGI (COLO 205 colon) was > 100 µM and the GI50 (DU-145 prostate) was 0.885 µM. For the same compound, the TGI (DU-145 prostate) was > 100 µM, the GI50 (EKVX NSCLC) was > 100 µM and the TGI (EKVX NSCLC) was > 100 µM. For the same compound, the GI50 (HCC-2998 colon) was 5.38 µM, the TGI (HCC-2998 colon) was > 100 µM and the GI50 (HCT-116 colon) was 8.5 µM. The TGI (HCT-116 colon) was > 100 µM, the GI50 (HCT-15 colon) was 20.8 µM and the TGI (HCT-15 colon) was > 100 µM. The GI50 (HL-60(TB) leukemia) was 7.37 µM, the TGI (HL-60(TB) leukemia) was > 100 µM and the GI50 (HOP-62 NSCLC) was 8.97 µM. For the same compound, the TGI (HOP-62 NSCLC) was > 100 µM, the GI50 (HOP-92 NSCLC) was 8.55 µM and the TGI (HOP-92 NSCLC) was > 100 µM. The GI50 (HS 578T breast) was > 100 µM, the TGI (HS 578T breast) was > 100 µM and the GI50 (HT29 colon) was > 100 µM. The TGI (HT29 colon) was > 100 µM, the GI50 (IGROV1 ovarian) was 25.4 µM and the TGI (IGROV1 ovarian) was > 100 µM. The GI50 (K-562 leukemia) was 94 µM, the TGI (K-562 leukemia) was > 100 µM and the GI50 (KM12 colon) was > 100 µM. For the same compound, the TGI (KM12 colon) was > 100 µM, the GI50 (LOX IMVI melanoma) was 4.81 µM and the TGI (LOX IMVI melanoma) was > 100 µM. For the same compound, the GI50 (M14 melanoma) was 1.96 µM, the TGI (M14 melanoma) was 7.82 µM and the GI50 (MALME-3M melanoma) was 92.3 µM. The TGI (MALME-3M melanoma) was > 100 µM, the GI50 (MCF7 breast) was 1.26 µM and the TGI (MCF7 breast) was > 100 µM. The GI50 (MDA-MB-231 breast) was > 100 µM, the TGI (MDA-MB-231 breast) was > 100 µM and the GI50 (MDA-MB-435) was 2.36 µM. The TGI (MDA-MB-435) was > 100 µM, the GI50 (MOLT-4 leukemia) was 14.8 µM and the TGI (MOLT-4 leukemia) was > 100 µM. For the same compound, the GI50 (NCI-H226 lung) was 9.42 µM, the TGI (NCI-H226 lung) was > 100 µM and the GI50 (NCI-H23 lung) was > 100 µM. For the same compound, the TGI (NCI-H23 lung) was > 100 µM, the GI50 (NCI-H460 lung) was 3.43 µM and the TGI (NCI-H460 lung) was > 100 µM. The GI50 (NCI-H522 lung) was 5.65 µM, the TGI (NCI-H522 lung) was > 100 µM and the GI50 (NCI/ADR-RES ovarian) was 16.7 µM. For the same compound, the TGI (NCI/ADR-RES ovarian) was > 100 µM, the GI50 (OVCAR-3 ovarian) was 23.8 µM and the TGI (OVCAR-3 ovarian) was > 100 µM. The GI50 (OVCAR-4 ovarian) was 54.7 µM, the TGI (OVCAR-4 ovarian) was > 100 µM and the GI50 (OVCAR-5 ovarian) was 41.8 µM. The TGI (OVCAR-5 ovarian) was > 100 µM, the GI50 (OVCAR-8 ovarian) was 6.91 µM and the TGI (OVCAR-8 ovarian) was > 100 µM. For the same compound, the GI50 (PC-3 prostate) was 8.74 µM, the TGI (PC-3 prostate) was > 100 µM and the GI50 (RPMI-8226 leukemia) was 2.12 µM. For the same compound, the TGI (RPMI-8226 leukemia) was > 100 µM, the GI50 (RXF 393 renal) was 4.54 µM and the TGI (RXF 393 renal) was > 100 µM. The GI50 (SF-268 CNS) was 3.87 µM, the TGI (SF-268 CNS) was > 100 µM and the GI50 (SF-295 CNS) was 3.72 µM. For the same compound, the TGI (SF-295 CNS) was > 100 µM, the GI50 (SF-539 CNS) was 2.03 µM and the TGI (SF-539 CNS) was > 100 µM. The GI50 (SK-MEL-2 melanoma) was > 100 µM, the TGI (SK-MEL-2 melanoma) was > 100 µM and the GI50 (SK-MEL-28 melanoma) was > 100 µM. The TGI (SK-MEL-28 melanoma) was > 100 µM, the GI50 (SK-MEL-5 melanoma) was 4.55 µM and the TGI (SK-MEL-5 melanoma) was > 100 µM. The GI50 (SK-OV-3 ovarian) was 8.51 µM, the TGI (SK-OV-3 ovarian) was > 100 µM and the GI50 (SN12C renal) was 4.28 µM. For the same compound, the TGI (SN12C renal) was > 100 µM, the GI50 (SNB-19 CNS) was > 100 µM and the TGI (SNB-19 CNS) was > 100 µM. For the same compound, the GI50 (SNB-75 CNS) was 8.92 µM, the TGI (SNB-75 CNS) was > 100 µM and the GI50 (SR leukemia) was 11.3 µM. For the same compound, the TGI (SR leukemia) was > 100 µM, the GI50 (SW-620 colon) was 6.2 µM and the TGI (SW-620 colon) was > 100 µM. The GI50 (T-47D breast) was 7.88 µM, the TGI (T-47D breast) was > 100 µM and the GI50 (TK-10 renal) was > 100 µM. For the same compound, the TGI (TK-10 renal) was > 100 µM, the GI50 (U251 CNS) was 9.08 µM and the TGI (U251 CNS) was > 100 µM. The GI50 (UACC-257 melanoma) was 2.7 µM, the TGI (UACC-257 melanoma) was > 100 µM and the GI50 (UACC-62 melanoma) was 1.41 µM. The TGI (UACC-62 melanoma) was > 100 µM, the GI50 (UO-31 renal) was 3.77 µM and the TGI (UO-31 renal) was > 100 µM.
For `NNC(=O)c1ccccc1Nc1nc(-c2cccs2)nc2ccc(Br)cc12`, the TGI (786-0 renal) was > 100 µM, the TGI (A498 renal) was > 100 µM and the TGI (A549 NSCLC) was > 100 µM. The TGI (ACHN renal) was > 100 µM, the TGI (BT-549 breast) was > 100 µM and the TGI (CAKI-1 renal) was > 100 µM. The TGI (CCRF-CEM leukemia) was > 100 µM, the TGI (COLO 205 colon) was > 100 µM and the TGI (DU-145 prostate) was > 100 µM. For the same compound, the TGI (EKVX NSCLC) was > 100 µM, the TGI (HCC-2998 colon) was > 100 µM and the TGI (HCT-116 colon) was > 100 µM. For the same compound, the TGI (HCT-15 colon) was > 100 µM, the TGI (HL-60(TB) leukemia) was > 100 µM and the TGI (HOP-62 NSCLC) was > 100 µM. For the same compound, the TGI (HOP-92 NSCLC) was > 100 µM, the TGI (HS 578T breast) was > 100 µM and the TGI (HT29 colon) was > 100 µM. The TGI (IGROV1 ovarian) was > 100 µM, the TGI (K-562 leukemia) was > 100 µM and the TGI (KM12 colon) was > 100 µM. The TGI (LOX IMVI melanoma) was > 100 µM, the TGI (M14 melanoma) was > 100 µM and the TGI (MALME-3M melanoma) was > 100 µM. For the same compound, the TGI (MCF7 breast) was > 100 µM, the TGI (MDA-MB-231 breast) was > 100 µM and the TGI (MDA-MB-435) was > 100 µM. The TGI (MOLT-4 leukemia) was > 100 µM, the TGI (NCI-H226 lung) was > 100 µM and the TGI (NCI-H23 lung) was > 100 µM. For the same compound, the TGI (NCI-H460 lung) was > 100 µM, the TGI (NCI-H522 lung) was > 100 µM and the TGI (NCI/ADR-RES ovarian) was > 100 µM. The TGI (OVCAR-3 ovarian) was > 100 µM, the TGI (OVCAR-4 ovarian) was > 100 µM and the TGI (OVCAR-5 ovarian) was > 100 µM. The TGI (OVCAR-8 ovarian) was > 100 µM, the TGI (PC-3 prostate) was > 100 µM and the TGI (RPMI-8226 leukemia) was > 100 µM. For the same compound, the TGI (SF-268 CNS) was > 100 µM, the TGI (SF-295 CNS) was > 100 µM and the TGI (SF-539 CNS) was > 100 µM. For the same compound, the TGI (SK-MEL-2 melanoma) was > 100 µM, the TGI (SK-MEL-28 melanoma) was > 100 µM and the TGI (SK-MEL-5 melanoma) was > 100 µM. For the same compound, the TGI (SK-OV-3 ovarian) was > 100 µM, the TGI (SN12C renal) was > 100 µM and the TGI (SNB-19 CNS) was > 100 µM. For the same compound, the TGI (SNB-75 CNS) was > 100 µM, the TGI (SR leukemia) was > 100 µM and the TGI (SW-620 colon) was > 100 µM. For the same compound, the TGI (T-47D breast) was > 100 µM, the TGI (TK-10 renal) was > 100 µM and the TGI (U251 CNS) was > 100 µM. The TGI (UACC-257 melanoma) was > 100 µM, the TGI (UACC-62 melanoma) was > 100 µM and the TGI (UO-31 renal) was > 100 µM.
